According to US11096980B2, “Method of using glycyrrhiza plant-based preparation to reduce toxic effect of polypeptide fungitoxin” (priority 2016, dated 2021):

Tested on: IPEC-J2 cells
Experiment: TEER cell culture assay: protective effect against polypeptide fungitoxins
Assay type: cell-based, porcine
Conditions: for TEER value after addition of toxin (negative control): toxin 0.2-10 μM added on day 8
Description: In order to test the correlations of polypeptide fungitoxins on epithelial tissue under controlled conditions, in vitro studies were performed. Therein, well-characterized test systems based on cell cultures and described in the literature were employed. For feed additives, epithelial cells from the respective organ in question, e.g. in the present case IPEC-J2 cells from the porcine intestine, were preferred. The used epithelial cells from the porcine intestine offer the advantage of being non-transformed cells still having all the important properties of normal intestinal cells and large physiological similarities such as the formation of viable tight junction proteins, which are above all essential for the intestinal barrier, as well as the expression of characteristic enzymes and transport systems (e.g. P-glycoprotein, cytochrome P450 3A4, vit. B 12 transporters etc.).
For the in vitro examinations of a Glycyrrhiza dry extract, the latter was extracted once again, thus producing a secondary Glycyrrhiza extract. The secondary Glycyrrhiza extract was prepared in that 1 g of the Glycyrrhiza dry extract and 9 ml 70% ethanol was each weighed in, mixed, and shaken at 700 rpm for one hour at room temperature. After this, the solution was centrifuged, and the liquid supernatant was sterile filtered using a 0.2 μm filter and further diluted with IPEC-J2 medium. The secondary Glycyrrhiza extract was tested in vitro in the following concentrations: 250 μg, 500 μg and 1,000 μg Glycyrrhiza dry extract per ml medium in the test formulation, in the following also referred to as 250, 500 and 1,000 μg/ml secondary Glycyrrhiza extract.
The TEER technique described by Geens and Niewold (Cytotechnology, 2011, 63, 415 et seq.) was used in an adapted form. In this in vitro model, intestinal porcine epithelial cells (IPEC-J2, DSMZ No.: ACC 701, Passage 1-15) are cultivated in an insert on a permeable polyester membrane (1.12 cm^2 surface area, 0.4 μm pore size, 12 mm membrane diameter) and differentiated in the incubator for a period of 8 days at 39° C. and 5% CO2. Per insert, 1×10^∧5 cells in 0.5 ml medium are applied to the respective membrane. During said differentiation period, the used medium was aspirated every other day and replaced with fresh medium. The insert was fixed in a 12-well cell culture plate, and the cells were supplied with 1.5 ml medium from below (basolateral compartment) and with 0.5 ml medium from above (apical compartment). […]
Differentiated cells form a cell barrier, being strongly interconnected by tight junction proteins. […] The intactness of the cell barrier is measured by means of a volt-ohmmeter: The electrical resistance between the two compartments is referred to as TEER (transepithelial electrical resistance) value and represented in kOhm×cm^2. […]

enniatins
TEER value after addition of toxin (negative control): lowered

CC1(C)[C@@H](O[C@H]2O[C@H](C(=O)O)[C@@H](O)[C@H](O)[C@H]2O[C@@H]2O[C@H](C(=O)O)[C@@H](O)[C@H](O)[C@H]2O)CC[C@]2(C)[C@H]3C(=O)C=C4[C@@H]5C[C@@](C)(C(=O)O)CC[C@]5(C)CC[C@@]4(C)[C@]3(C)CC[C@@H]12 [glycyrrhizic acid]
Effect in the TEER test against enniatins A, A1, B, B1, beauvericin and apicidin relative to the negative controls (70 μg/ml (corresponding to 1.000 μg/ml secondary Glycyrrhiza extract)): no positive effect

CC[C@H](C)[C@H]1C(=O)O[C@H](C(C)C)C(=O)N(C)[C@@H]([C@@H](C)CC)C(=O)O[C@H](C(C)C)C(=O)N(C)[C@@H]([C@@H](C)CC)C(=O)O[C@H](C(C)C)C(=O)N1C [enniatin A]
TEER mean value (toxin) (enniatin A 5 μM alone (negative control), after 24 hours): 3.928 kOhm×cm^2

CCC(=O)CCCCC[C@@H]1NC(=O)[C@H]2CCCCN2C(=O)[C@H]([C@@H](C)CC)NC(=O)[C@H](Cc2cn(OC)c3ccccc23)NC1=O [apicidin]
TEER value after addition of toxin (negative control): lowered
